This passage reports IC50 results from patent publication US5916905A, “2,3-substituted pyridines for the treatment of inflammation” (G. D. Searle & Co., priority 1997, dated 1999).

For one assay, the target named is T1, COX-1 (Homo sapiens, UniProt P23219).
T1 construct: A 2.0 kb fragment containing the coding region; made in house; host or cells: SF9 insect cells (baculovirus, pVL1393)
Description: COX-1 activity in vitro, recombinant human enzyme (PGE2 ELISA). Type of assay: biochemical. Conditions: human (h); 10 μM arachidonic acid, 10-20 min pre-incubation; read-out: COX-1 ID50. As to the method:
(§1) The COX-2 inhibition activity of the compounds of this invention illustrated in the Examples was determined by the following methods.
(§2) Recombinant COX-1 and COX-2 were prepared as described by Gierse et al, [J. Biochem., 305, 479-84 (1995)]. A 2.0 kb fragment containing the coding region of either human or murine COX-1 or human or murine COX-2 was cloned into a BamH1 site of the baculovirus transfer vector pVL1393 (Invitrogen) to generate the baculovirus transfer vectors for COX-1 and COX-2 in a manner similar to the method of D. R. O'Reilly et al (Baculovirus Expression Vectors: A Laboratory Manual (1992)). Recombinant baculoviruses were isolated by transfecting 4 μg of baculovirus transfer vector DNA into SF9 insect cells (2×10^8) along with 200 ng of linearized baculovirus plasmid DNA by the calcium phosphate method. See M. D. Summers and G. E. Smith, A Manual of Methods for Baculovirus Vectors and Insect Cell Culture Procedures, Texas Agric. Exp. Station Bull. 1555 (1987). Recombinant viruses were purified by three rounds of plaque purification and high titer (10^7 -10^8 pfu/ml) stocks of virus were prepared. For large scale production, SF9 insect cells were infected in 10 liter fermentors (0.5×10^6 /ml) with the recombinant baculovirus stock such that the multiplicity of infection was 0.1. After 72 hours the cells were centrifuged and the cell pellet homogenized in Tris/Sucrose (50 mM: 25%, pH 8.0) containing 1% 3-[(3-cholamidopropyl)dimethylammonio]-1-propanesulfonate (CHAPS). The homogenate was centrifuged at 10,000×G for 30 minutes, and the resultant supernatant was stored at -80° C. before being assayed for COX activity.
(§3) b. Assay for COX-1 and COX-2 activity COX activity was assayed as PGE2 formed/μg protein/time using an ELISA to detect the prostaglandin released. CHAPS-solubilized insect cell membranes containing the appropriate COX enzyme were incubated in a potassium phosphate buffer (50 mM, pH 8.0) containing epinephrine, phenol, and heme with the addition of arachidonic acid (10 μM). Compounds were pre-incubated with the enzyme for 10-20 minutes prior to the addition of arachidonic acid. Any reaction between the arachidonic acid and the enzyme was stopped after ten minutes at 37° C./room temperature by transferring 40 μl of reaction mix into 160 μl ELISA buffer and 25 μM indomethacin. The PGE2 formed was measured by standard ELISA technology (Cayman Chemical).
For orientation: In an ELISA, binding on a coated surface is turned into a signal by an enzyme label.

The target in the next assay is T2, COX-2 (Homo sapiens, UniProt P35354).
T2 construct: A 2.0 kb fragment containing the coding region; made in house; host or cells: SF9 insect cells (baculovirus, pVL1393)
T2 sequence (P35354 18-604): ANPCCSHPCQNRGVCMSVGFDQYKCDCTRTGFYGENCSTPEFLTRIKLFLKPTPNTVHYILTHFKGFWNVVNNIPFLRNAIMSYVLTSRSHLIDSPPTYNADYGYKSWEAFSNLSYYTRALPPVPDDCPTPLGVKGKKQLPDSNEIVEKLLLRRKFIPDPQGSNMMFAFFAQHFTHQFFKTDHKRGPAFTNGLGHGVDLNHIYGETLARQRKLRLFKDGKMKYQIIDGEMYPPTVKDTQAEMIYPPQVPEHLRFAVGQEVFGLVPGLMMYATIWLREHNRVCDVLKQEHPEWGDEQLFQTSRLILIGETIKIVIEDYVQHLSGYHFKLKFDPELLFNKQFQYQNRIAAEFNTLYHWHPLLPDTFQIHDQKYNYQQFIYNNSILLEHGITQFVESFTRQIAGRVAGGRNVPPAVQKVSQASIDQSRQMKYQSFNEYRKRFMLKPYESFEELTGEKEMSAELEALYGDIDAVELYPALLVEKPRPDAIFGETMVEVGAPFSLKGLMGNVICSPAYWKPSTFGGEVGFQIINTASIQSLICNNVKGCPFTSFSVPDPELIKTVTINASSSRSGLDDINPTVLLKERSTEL
Kind of assay: COX-2 activity in vitro, recombinant human enzyme (PGE2 ELISA). Type of assay: biochemical. The following applies: human (h); 10 μM arachidonic acid, 10-20 min pre-incubation; read-out: COX-2 ID50. As for the experimental part:
as §1, §2, §3

Molecules are shown by their SMILES. pIC50: −log10 of the molar value.

T1 sequence (P23219 24-599): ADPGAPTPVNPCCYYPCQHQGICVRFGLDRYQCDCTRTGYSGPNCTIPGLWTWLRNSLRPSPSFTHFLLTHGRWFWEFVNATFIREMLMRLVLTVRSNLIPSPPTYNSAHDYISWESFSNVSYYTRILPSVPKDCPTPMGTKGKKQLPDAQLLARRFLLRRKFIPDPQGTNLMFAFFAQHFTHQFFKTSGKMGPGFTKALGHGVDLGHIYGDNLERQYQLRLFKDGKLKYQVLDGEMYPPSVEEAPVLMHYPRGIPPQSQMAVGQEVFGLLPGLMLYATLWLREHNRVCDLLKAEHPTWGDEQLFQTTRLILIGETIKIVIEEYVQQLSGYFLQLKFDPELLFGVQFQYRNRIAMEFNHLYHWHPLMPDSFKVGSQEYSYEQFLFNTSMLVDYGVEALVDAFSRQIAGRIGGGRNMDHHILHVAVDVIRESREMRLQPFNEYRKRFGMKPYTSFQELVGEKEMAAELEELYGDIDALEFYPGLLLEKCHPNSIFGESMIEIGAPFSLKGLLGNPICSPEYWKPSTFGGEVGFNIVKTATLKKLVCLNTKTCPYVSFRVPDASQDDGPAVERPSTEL

On to `CCCCOc1nc(-c2ccc(F)cc2)c(-c2ccc(S(C)(=O)=O)cc2)cc1C(C)O` (racemic) [Example 43, (+/-) 2-Butoxy-6-(4-fluorophenyl)-α-methyl-5-[4-(methylsulfonyl)phenyl]pyridine-3-methanol], for which the pIC50 at COX-1 is 4.55; on COX-2 it was 7.00.

Regarding `CCCCOc1nc(-c2ccc(F)cc2)c(-c2ccc(S(C)(=O)=O)cc2)cc1C(C)OC(=O)CCC` (racemic) [Example 44, (+/-) 1-[2-Butoxy-6-(4-fluorophenyl)-5-[4-(methylsulfonyl)phenyl]pyridin-3-yl]ethylbutanoate], the values for the pIC50 on COX-1 and on COX-2 were under 4.00 and 5.70, respectively.

In the case of `CS(=O)(=O)c1ccc(-c2ccc(Cl)nc2-c2ccc(F)cc2)cc1` [Example 1, 2-chloro-6-(4-fluorophenyl)-5-[4-(methylsulfonyl)phenyl]pyridine], the pIC50 at COX-1 is under 4.00; on COX-2, 4.54.

Regarding `CSc1ccc(-c2nc(SC)ccc2-c2ccc(S(C)(=O)=O)cc2)cc1` [Example 5, 5-[4-(Methylsulfonyl)phenyl]-2-methylthio-6-[4-(methylthio)phenyl]pyridine], the pIC50 at COX-1 was under 4.00; at COX-2, over 7.00.

For the molecule `CS(=O)(=O)c1ccc(-c2ccc(N=[N+]=[N-])nc2-c2ccc(F)cc2)cc1` [Example 6, 2-Azido-6-(4-fluorophenyl)-5-[4-(methylsulfonyl)phenyl]pyridine], the pIC50 on COX-1 was under 4.00; on COX-2, 5.70.

In the case of `CCCOc1nc(-c2ccc(F)cc2)c(-c2ccc(S(C)(=O)=O)cc2)cc1C#N` [Example 10, 6-(4-Fluorophenyl)-5-[4-(methylsulfonyl)phenyl]-2-propoxypyridine-3-carbonitrile], the results for the pIC50 on COX-1 and at COX-2 were under 4.00 and 6.70, respectively.

`COc1ccc(-c2nc(OC)c(C#N)cc2-c2ccc(S(C)(=O)=O)cc2)cc1` [Example 11, 2-Methoxy-6-(4-methoxyphenyl)-5-[4-(methylsulfonyl)phenyl]pyridine-3-carbonitrile]: the pIC50 at COX-1 is under 4.00; at COX-2, 6.40.

On to `CN(C)c1nc(-c2ccc(F)cc2)c(-c2ccc(S(C)(=O)=O)cc2)cc1C#N` [Example 12, 2-(Dimethylamino)-6-(4-fluorophenyl)-5-[4-(methylsulfonyl)phenyl]pyridine-3-carbonitrile], for which the pIC50 on COX-1 was under 4.00; on COX-2, 6.22.

Consider `CSc1nc(-c2ccc(F)cc2)c(-c2ccc(S(C)(=O)=O)cc2)cc1C#N` [Example 13, 6-(4-Fluorophenyl)-5-[4-(methylsulfonyl)phenyl]-2-(methylthio)pyridine-3-carbonitrile], for which the figures for the pIC50 on COX-1 and at COX-2 were under 4.00 and 6.70, respectively.

For the molecule `CCCCOc1nc(-c2ccc(F)cc2)c(-c2ccc(S(C)(=O)=O)cc2)cc1C#N` [Example 14, 2-Butoxy-6-(4-fluorophenyl)-5-[4-(methylsulfonyl)phenyl]pyridine-3-carbonitrile], the figures for the pIC50 on COX-1 and at COX-2 were under 4.00 and over 7.00, respectively.

For the molecule `CS(=O)(=O)c1ccc(-c2cc(C#N)c(OCc3ccccc3)nc2-c2ccc(F)cc2)cc1` [Example 15, 6-(4-Fluorophenyl)-5-[4-(methylsulfonyl)phenyl]-2-(phenylmethoxy)pyridine-3-carbonitrile], the pIC50 was under 4.00 at COX-1 and over 7.00 on COX-2.

Regarding `CNc1nc(-c2ccc(F)cc2)c(-c2ccc(S(C)(=O)=O)cc2)cc1C#N` [Example 16, 6-(4-Fluorophenyl)-2-(methylamino)-5-[4-(methylsulfonyl)phenyl]pyridine-3-carbonitrile], the pIC50 on COX-1 was under 4.00; on COX-2, 5.64.

Regarding `C=CCOc1nc(-c2ccc(F)cc2)c(-c2ccc(S(C)(=O)=O)cc2)cc1C#N` [Example 17, 6-(4-Fluorophenyl)-5-[4-(methylsulfonyl)phenyl]-2-[(2-propenyl)oxy]pyridine-3-carbonitrile], the pIC50 is under 4.00 at COX-1 and over 7.00 on COX-2.
